For test [1], the system named is Myzus persicae. Nature of the test: Insecticidal activity against Myzus persicae (green peach aphid) assessed as mortality. The format is functional.
For test [2], the system named is Podosphaera fuliginea. Nature of the test: Fungicidal activity against Podosphaera fuliginea. The class given is functional, organism-based.
Test [3] has as its system Pseudoperonospora cubensis. Nature of the test: Fungicidal activity against Pseudoperonospora cubensis. The format is functional, organism-based.

Values after ≈ are worked out from the molar mass of the structure shown.

Consider `CO[C@@H](c1cc(C)no1)c1ccccc1/C=N/N=C(\C)c1ccc(Cl)c(Cl)c1`, for which the LC50 (as a rule, the concentration lethal to half of the exposed cells or organisms) in test [1] worked out at 20 µg/mL (≈ 48 µM). For the same molecule, the EC50 in test [2] worked out at 0.7 ppm; in test [3] it was 16 ppm.
The matching figures for `CO[C@H](c1cc(C)no1)c1ccccc1/C=N/N=C(\C)c1ccc(Cl)c(Cl)c1`: greater than 250 µg/mL, 8.8 ppm and greater than 500 ppm.
In the same order, the values of `COC(c1cc(C)no1)c1ccccc1/C=N/N=C(\C)c1ccc(Cl)c(Cl)c1` (racemic) are 53 µg/mL (≈ 127 µM), 2 ppm and 32 ppm.

Values taken from ChEMBL document CHEMBL3046225, “Effects of Enantiomerism on Fungicidal and Insecticidal Activities of (-Methoxybenzyl)isoxazoles” (J Pestic Sci, 2000).
